From US20240270762A1, “PENICILLIN-BINDING PROTEIN INHIBITORS” (priority 2021, published 2024)
Values after ≈ are worked out from the molar mass of the structure shown.

Legend:
A. baumannii ATCC 19606 = test: microbe, parasite or virus in culture; type: cell-based; conditions: Acinetobacter baumannii, ATCC19606, read-out: MIC, A. baumannii ATCC 19606
A. baumannii 1258916 = test: microbe, parasite or virus in culture; type: cell-based, Acinetobacter baumannii; conditions: Acinetobacter baumannii, 1258916, read-out: MIC, A. baumannii 1258916
P. aeruginosa CDC-0090 = test: microbe, parasite or virus in culture; type: cell-based; conditions: Pseudomonas aeruginosa, CDC0090, read-out: Minimum inhibitory concentration, P. aeruginosa CDC-0090
[1] = tested on: B. thailandensis ATCC 700388; test: microbe, parasite or virus in culture; type: cell-based; conditions: Burkholderia thailandensis, ATCC700388, read-out: Minimum inhibitory concentration (MIC), B. thailandensis ATCC 700388
P. aeruginosa CDC-0095 = test: microbe, parasite or virus in culture; type: cell-based; conditions: Pseudomonas aeruginosa, CDC0095, read-out: Minimum inhibitory concentration, P. aeruginosa CDC-0095
A. baumannii CDC-0036 = test: microbe, parasite or virus in culture; type: cell-based; conditions: Acinetobacter baumannii, CDC0036, read-out: MIC, A. baumannii CDC-0036
P. aeruginosa CDC-0110 = test: microbe, parasite or virus in culture; type: cell-based; conditions: Pseudomonas aeruginosa, CDC0110, read-out: Minimum inhibitory concentration, P. aeruginosa CDC-0110
A. baumannii CDC-0033 = test: microbe, parasite or virus in culture; type: cell-based; conditions: Acinetobacter baumannii, CDC0033, read-out: MIC, A. baumannii CDC-0033
[2] = tested on: P. aeruginosa (ΔmexAB-oprM); test: Broth microdilution MIC in iron-depleted CAMHB (IDM); type: cell-based; conditions: Pseudomonas aeruginosa; iron-depleted CAMHB (IDM); […]; read-out: Minimum inhibitory concentration, P. aeruginosa ΔmexAB-oprM
A. baumannii PBP1a = biological target: T1, A. baumannii PBP1a (Acinetobacter baumannii, UniProt A0ABX6CK30); test: Bocillin-FL competition binding via gel filtration, A. baumannii PBP1a; conditions: competition binding assay using Bocillin-FL via gel filtration; read-out: A. baumannii PBP1a Potency
T1 sequence (A0ABX6CK30 1-851): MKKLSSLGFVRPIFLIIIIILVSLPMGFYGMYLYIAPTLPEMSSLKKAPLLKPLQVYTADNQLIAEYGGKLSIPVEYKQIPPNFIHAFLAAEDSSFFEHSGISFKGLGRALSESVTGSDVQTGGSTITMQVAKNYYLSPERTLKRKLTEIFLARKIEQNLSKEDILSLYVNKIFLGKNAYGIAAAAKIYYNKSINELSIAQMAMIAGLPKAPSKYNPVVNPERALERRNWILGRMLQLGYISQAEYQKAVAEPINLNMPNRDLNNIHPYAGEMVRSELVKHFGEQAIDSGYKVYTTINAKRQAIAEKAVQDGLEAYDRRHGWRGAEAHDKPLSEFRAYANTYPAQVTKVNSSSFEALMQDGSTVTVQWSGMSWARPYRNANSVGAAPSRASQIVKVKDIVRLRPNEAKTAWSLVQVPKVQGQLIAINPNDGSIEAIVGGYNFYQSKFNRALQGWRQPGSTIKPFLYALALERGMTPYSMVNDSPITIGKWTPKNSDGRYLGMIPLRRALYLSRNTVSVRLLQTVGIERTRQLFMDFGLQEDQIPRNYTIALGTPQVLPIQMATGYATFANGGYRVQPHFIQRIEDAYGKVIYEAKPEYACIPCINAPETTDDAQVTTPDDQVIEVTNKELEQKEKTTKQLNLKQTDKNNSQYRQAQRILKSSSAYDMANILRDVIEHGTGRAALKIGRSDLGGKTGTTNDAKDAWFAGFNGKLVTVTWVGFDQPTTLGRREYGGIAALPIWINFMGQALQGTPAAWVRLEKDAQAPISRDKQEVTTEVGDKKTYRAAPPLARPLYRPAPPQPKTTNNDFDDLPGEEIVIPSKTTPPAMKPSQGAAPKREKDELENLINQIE
Summary of the method: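 Competitive equilibrium binding; reporter Bocillin-FL. PBP + inhibitor (titration) pre-incubated → Bocillin-FL, 15 min → gel filtration → fluorescence. EC50 from Hill fit of fraction bound vs [inhibitor].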

| SMILES | MIC (A. baumannii ATCC 19606) | MIC (A. baumannii 1258916) | MIC (P. aeruginosa CDC-0090) | MIC [1] | MIC (P. aeruginosa CDC-0095) | MIC (A. baumannii CDC-0036) | MIC (P. aeruginosa CDC-0110) | MIC (A. baumannii CDC-0033) | MIC [2] | EC50 (A. baumannii PBP1a) |
| --- | --- | --- | --- | --- | --- | --- | --- | --- | --- | --- |
| CS(=O)(=O)N1CCN(C(=O)N[C@@H](C(=O)N[C@H]2Cc3ccc(F)c(C(=O)O)c3OB2O)c2ccc(P(=O)(O)O)c(F)c2)C1=O (single isomer, unassigned) [Example 19] | 32 to 64 µg/mL (≈ 49.5 to 99 µM) | > 128 µg/mL | > 128 µg/mL | 32 to 64 µg/mL (≈ 49.5 to 99 µM) | > 128 µg/mL | > 128 µg/mL | > 128 µg/mL | > 128 µg/mL | 32 to 64 µg/mL (≈ 49.5 to 99 µM) |  |
| O=C(O)c1c(F)ccc2c1OB(O)[C@@H](NC(=O)C(NC(=O)N1CCN(Cc3ccc(O)c(O)c3Cl)C(=O)C1=O)c1ccc(P(=O)(O)O)cc1)C2 (stereo partly drawn) [Example 8, (3R)-3-(2-(4-(2-chloro-3,4-dihydroxybenzyl)-2,3-dioxopiperazine-1-carboxamido)-2-(4-phosphonophenyl)acetamido)-7-fluoro-2-hydroxy-3,4-dihydro-2H-benzo[e][1,2]oxaborinine-8-carboxylic acid] | < 1 µg/mL | < 1 µg/mL | 2 to 4 µg/mL (≈ 2.72 to 5.44 µM) | < 1 µg/mL | < 1 µg/mL | 2 to 4 µg/mL (≈ 2.72 to 5.44 µM) | < 1 µg/mL | < 1 µg/mL | < 1 µg/mL | 10 to 50 µM |
| O=C(O)c1c(F)ccc2c1OB(O)[C@@H](NC(=O)C(NC(=O)N1CCN(Cc3ccc(O)c(O)c3Cl)C1=O)c1ccc(P(=O)(O)O)cc1)C2 (stereo partly drawn) [Example 46, (3R)-3-(2-(3-(2-chloro-3,4-dihydroxybenzyl)-2-oxoimidazolidine-1-carboxamido)-2-(4-phosphonophenyl)acetamido)-7-fluoro-2-hydroxy-3,4-dihydro-2H-benzo[e][1,2]oxaborinine-8-carboxylic acid] |  |  | 2 to 4 µg/mL (≈ 2.83 to 5.66 µM) | < 1 µg/mL | < 1 µg/mL |  | < 1 µg/mL |  | < 1 µg/mL | < 10 µM |
| O=C(NCCN1CCN(C(=O)NC(C(=O)N[C@H]2Cc3ccc(F)c(C(=O)O)c3OB2O)c2ccc(P(=O)(O)O)cc2)C(=O)C1=O)c1ccc(O)c(O)c1Cl (stereo partly drawn) [Example 120, (3R)-3-(2-(4-(2-(2-chloro-3,4-dihydroxybenzamido)ethyl)-2,3-dioxopiperazine-1-carboxamido)-2-(4-phosphonophenyl)acetamido)-7-fluoro-2-hydroxy-3,4-dihydro-2H-benzo[e][1,2]oxaborinine-8-carboxylic acid] | < 1 µg/mL | < 1 µg/mL | < 1 µg/mL | < 1 µg/mL | < 1 µg/mL | 8 to 16 µg/mL (≈ 10.1 to 20.2 µM) | < 1 µg/mL | 2 to 4 µg/mL (≈ 2.53 to 5.05 µM) | < 1 µg/mL | 10 to 50 µM |
| O=C(O)c1cccc2c1OB(O)[C@@H](NC(=O)C(NC(=O)N1CCN(Cc3ccc(O)c(O)c3Cl)C(=O)C1=O)c1ccc(P(=O)(O)O)cc1)C2 (stereo partly drawn) [Example 24, (3R)-3-(2-(4-(2-chloro-3,4-dihydroxybenzyl)-2,3-dioxopiperazine-1-carboxamido)-2-(4-phosphonophenyl)acetamido)-2-hydroxy-3,4-dihydro-2H-benzo[e][1,2]oxaborinine-8-carboxylic acid] | < 1 µg/mL | < 1 µg/mL | 8 to 16 µg/mL (≈ 11.2 to 22.3 µM) | < 1 µg/mL | < 1 µg/mL | < 1 µg/mL | < 1 µg/mL | < 1 µg/mL | < 1 µg/mL | 10 to 50 µM |
| O=C(N[C@@H](C(=O)N[C@H]1Cc2cccc(C(=O)O)c2OB1O)c1ccc(P(=O)(O)O)cc1)c1ccc(O)c(O)c1Cl [Example 49, (R)-3-((R)-2-(2-chloro-3,4-dihydroxybenzamido)-2-(4-phosphonophenyl)acetamido)-2-hydroxy-3,4-dihydro-2H-benzo[e][1,2]oxaborinine-8-carboxylic acid] | < 1 µg/mL | > 128 µg/mL | 2 to 4 µg/mL (≈ 3.39 to 6.77 µM) | 2 to 4 µg/mL (≈ 3.39 to 6.77 µM) | < 1 µg/mL | > 128 µg/mL | < 1 µg/mL | > 128 µg/mL | < 1 µg/mL | 10 to 50 µM |
| O=C(O)c1c(F)ccc2c1OB(O)[C@@H](NC(=O)C(NC(=O)N1CCN(Cc3ccc(O)c(O)c3Cl)C(=O)C1=O)c1ccc(P(=O)(O)O)c(F)c1)C2 (stereo partly drawn) [Example 23, (3R)-3-(2-(4-(2-chloro-3,4-dihydroxybenzyl)-2,3-dioxopiperazine-1-carboxamido)-2-(3-fluoro-4-phosphonophenyl)acetamido)-7-fluoro-2-hydroxy-3,4-dihydro-2H-benzo[e][1,2]oxaborinine-8-carboxylic acid] | < 1 µg/mL | < 1 µg/mL | 8 to 16 µg/mL (≈ 10.6 to 21.3 µM) | < 1 µg/mL | < 1 µg/mL | < 1 µg/mL | < 1 µg/mL | < 1 µg/mL | < 1 µg/mL | 10 to 50 µM |
| O=C(O)c1c(F)ccc2c1OB(O)[C@@H](NC(=O)C(NC(=O)N1CCN(Cc3cc(F)c(O)c(O)c3Cl)C(=O)C1=O)c1ccc(P(=O)(O)O)cc1)C2 (stereo partly drawn) [Example 45, (3R)-3-(2-(4-(2-chloro-5-fluoro-3,4-dihydroxybenzyl)-2,3-dioxopiperazine-1-carboxamido)-2-(4-phosphonophenyl)acetamido)-7-fluoro-2-hydroxy-3,4-dihydro-2H-benzo[e][1,2]oxaborinine-8-carboxylic acid] | < 1 µg/mL | < 1 µg/mL | < 1 µg/mL | < 1 µg/mL | < 1 µg/mL | < 1 µg/mL | < 1 µg/mL | < 1 µg/mL | < 1 µg/mL | 10 to 50 µM |
